Columns and labels:
Assay type in all cases: cell-based, human
[1] = tested on: TGF-β1-induced MRC-5 cells; assay: Western blot of p-CREB; conditions: 10 µM
Protocol: Western Blot analysis was performed according to a standard protocol. Briefly, MRC-5 cells were pre-incubated with the study compounds (10 µM) for 1 h, followed by 48 h incubation with TGF-β1 and then lysed in RIPA buffer (RIPA Lysis and Extraction Buffer, Thermo Fisher Scientific, Waltham, MA, USA) and supplemented with protease inhibitor cocktail and phosphatase inhibitor cocktail (both from Sigma Aldrich, St. Louis, MO, USA). Equal amounts of protein (30 µg) were separated using 10% SDS-polyacrylamide gels and transferred onto polyvinylidene difluoride (PVDF) membranes (Thermo Fisher Scientific, Waltham, MA, USA). […] ROD was measured according to the NIH guidelines with Fiji ImageJ Software. […]

[2] = tested on: TGF-β1-induced MRC-5 cells; assay: Protein kinase A activity; conditions: 10 µM 30 min, then TGF-β1 30 min
Protocol: Protein Kinase A (PKA) activity in MRC-5 cells was determined using a PKA Colorimetric Activity Kit (Invitrogen, Carlsbad, CA, USA) according to the manufacturer’s protocol. MRC-5 cells were seeded in standard culture medium, and after 48 h they were serum-starved for 2 h in HBSS, followed by the addition of study compounds (10 µM) and incubation for 30 min. Finally, TGF-β1 was administered, and the samples were incubated for an additional 30 min. Whole cell lysates were used in the assay. The amount of PKA was normalized to the total protein content in each sample. The experiments were run two times in duplicates.

MRC-5 cells [3] = assay: TGF-β1-induced collagen gel contraction assay; conditions: 10 µM, 1 h pre-incubation, 6 h TGF-β1; compared to TGF-β1 alone
Protocol: A collagen cell contraction assay was performed according to manufactures’ instructions (Cell Biolabs, INC., San Diego, CA, USA). Briefly, MRC-5 was harvested and mixed with a collagen solution. After polymerization, collagen gel lattices were cultured for two days, during which mechanical tension develops. Before releasing the stressed matrix, MRC-5 cells were pre-treated with study compounds (10 µM) for 1 h. Then collagen gels were gently released from the sides of the culture dishes and contraction in the presence of study compounds, and TGF-β1 was initiated. The collagen gel size was monitored at various time points and quantified with the Fiji ImageJ Software (National Institutes of Health, Bethesda, MD, USA, version 1.52q). The experiments were run three times.

MRC-5 cells [4] = assay: cAMP ELISA; conditions: 10 µM, 30 min
Protocol: MRC-5 cells were seeded in standard culture medium for 24 h and then serum-starved for 2 h in HBSS. The study compounds (10 µM) were added to the MRC-5 cultures and after 30 min of incubation, the intracellular cAMP level in cell lysates was measured using a colorimetric cAMP ELISA Kit according to the manufacturer’s protocol (Cell Biolabs, INC., San Diego, CA, USA). Obtained results were normalized to total protein content in each sample. The experiments were run two times in duplicates.

[5] = tested on: TGF-β1-induced MRC-5 cells; assay: Immunofluorescence, nuclear localization of p-CREB; conditions: 10 µM
Protocol: For immunocytochemical labeling, MRC-5 cells were seeded on glass coverslips. Study compounds (10 µM) were added 1 h before TGF-β1 treatment, and analysis was performed after 1 h (p-Smad-2 and p-CREB detection) or 48 h (α-SMA detection) of incubation. Cells were fixed in methanol or 4% formaldehyde solution, permeabilized in 0.2% or 0.1% Triton X-100 solution (for p-Smad-2 and p-CREB or α-SMA, respectively). After incubation in blocking solution the following primary antibodies: rabbit polyclonal, anti-phospho-Smad-2 (Ser465, Ser467) antibody (#44-244G, Thermo Fisher Scientific, Waltham, MA, USA); rabbit polyclonal, anti-phospho-CREB1 (Ser133) antibody (#orb213775, Biorbyt, Cambridge, United Kingdom); mouse monoclonal, anti-α-SMA antibody (#MA5-11547, Thermo Fisher Scientific, Waltham, MA, USA) and secondary antibodies: goat anti-rabbit Alexa Fluor 546 conjugated antibody and goat anti-mouse Alexa Fluor 488 conjugated antibody (#A-11010 and #A-11001, respectively, Invitrogen, Carlsbad, CA, USA) were used. Nuclei were counterstained with Hoechst 33342 dye (Thermo Fisher Scientific, Waltham, MA, USA). Slides were mounted in ProLong™ Glass Antifade Mountant (Invitrogen, Carlsbad, CA, USA) and analyzed using Leica DMiL LED Fluo microscope (for α-SMA and p-CREB visualization, 40× objective) or Leica DMi8 with Thunder Imaging System (for p-Smad-2 visualization, 40× objective), all equipped with LAS-X Software (Leica Microsystems GmbH, Wetzlar, Germany). Experiments were run four times using five randomly selected fields of view, at the same fluorescent time exposure and in a blind-folded manner.

C=C[C@@]1(C)CC(=O)[C@]2(O)[C@@]3(C)[C@@H](O)CCC(C)(C)[C@@H]3[C@H](O)[C@H](OC(C)=O)[C@@]2(C)O1 [forskolin, reference compound]
CREB phosphorylation (immunoblot) [1]: increased CREB phosphorylation
Protein kinase A activity in TGF-β1-induced fibroblasts [2]: the highest
size of collagen gel lattices (TGF-β1-induced contraction) (MRC-5 cells [3]): showed similar properties as 145 or IBMX
increase in cAMP level compared to control (MRC-5 cells [4]): 5.7 fold
elevation of fraction of MRC-5 cells with nuclear p-CREB localization [5]: 76%

Source: paper PMC7312375, “A Novel, Pan-PDE Inhibitor Exerts Anti-Fibrotic Effects in Human Lung Fibroblasts via Inhibition of TGF-β Signaling and Activation of cAMP/PKA Signaling” (International Journal of Molecular Sciences, 2020)
